One series deals with bronchial walls. Description: Bronchial wall injections in a porcine subject: bronchoconstriction challenge and relief. It counts as in vivo. The following applies: for Effect of injection into methacholine-narrowed segments (bronchodilation): 0.1 to 0.5 mL injected into narrowed bronchial segments. The protocol: In another animal study, one porcine subject was utilized. The animal received multiple injections in the bronchial wall of sub-selected bronchi. First injections of methacholine in concentrations of 0.3 or 3.0 mg/mL and volumes of 0.1 to 0.5 mL were made into bronchial walls throughout the airway tree.

Another series concerns porcine bronchi. Description: Toxicity and histopathological evaluation after injections in all lobes of the lungs of porcine subjects. It counts as in vivo. How it is done:
Four porcine subjects were treated with two different drugs to test pharmacokinetics and toxicity in porcine bronchi. Dexamethasone was administered to 2 animals at low (1 mg/mL), medium (2 mg/mL), and high (4 mg/mL) doses. The other drug, α-1-antitrypsin (Alpha-1-antitrypsin or A1AT), was administered to the remaining animals at low (2 mg/mL), medium (10 mg/mL), and high (50 mg/mL) doses. The drugs were administered via injections in all lobes of the lungs at the varying dosages.
All animals survived until a scheduled termination and were sacrificed on day 30. All four animals had limited necropsies completed.
This group was comprised of 2 animals. Both animals received low dose treatment in the right upper and middle lung lobes, and mid dose treatment in the right lower lung lobe. One subject received high dose treatment in the left upper lung lobe. Another subject received high dose treatment in the left upper and lower lung lobes.
This group was comprised of 2 animals. Both animals received low dose treatment in the right upper and middle lung lobes, and mid dose treatment in the right lower lung lobe. One subject received high dose treatment in the left lower lung lobe, and the other received high dose treatment in the left upper lung lobe.

For series [1] the following is noted: oral administration, cited from earlier work.
Setting [2] is: 0.3 or 3.0 mg/mL, 0.1 to 0.5 mL into bronchial walls.

Consider `CC(C)(C)NC[C@H](O)c1ccc(O)c(CO)c1` [levalbuterol], for which the “Effect of injection into methacholine-narrowed segments (bronchodilation)” value in the series with bronchial walls was “immediate bronchodilation”.

For the compound `C[N+]1(C)[C@@H]2C[C@@H](OC(=O)C(O)(c3cccs3)c3cccs3)C[C@H]1[C@@H]1O[C@@H]12` [tiotropium bromide], the “Effect of injection into methacholine-narrowed segments (bronchodilation)” value in the series with bronchial walls is reported as “immediate bronchodilation”.

`CC(=O)OC(C)C[N+](C)(C)C` (centres unmarked) [methacholine]: in the series on bronchial walls (setting [2]), the Duration of bronchoconstriction entry is recorded as “more than 30 minutes” and the “Effect of injection on the airway (bronchoconstriction)” value was “immediate bronchoconstriction”.

Take α-1-antitrypsin [A1AT]: in the series with porcine bronchi (pig, in vivo), the “Findings in bronchial or bronchiolar walls” value was “no abnormal findings”, the “Gross or histopathological changes in the lung related to toxic effects” value is reported as “did not induce any gross or histopathological changes”, the “Histopathological examination of the lung tissues” value was “normal lung architecture” and the “Inflammatory cell infiltrates in lung sections (considered a background change)” value is recorded as “minimal multifocal inflammatory cell infiltrates”.

On to `C[C@@H]1C[C@H]2[C@@H]3CCC4=CC(=O)C=C[C@]4(C)[C@@]3(F)[C@@H](O)C[C@]2(C)[C@@]1(O)C(=O)CO` [Dexamethasone], for which, in the series on porcine bronchi (pig, in vivo), the “Findings in bronchial or bronchiolar walls” value is given as “no abnormal findings”, the “Gross or histopathological changes in the lung related to toxic effects” value is listed as “did not induce any gross or histopathological changes” and the “Inflammatory cell infiltrates in lung sections (considered a background change)” value is recorded as “minimal multifocal inflammatory cell infiltrates”. Also, the “Histopathological examination of the lung tissues” value in the series on porcine bronchi (porcine, injections in lung lobes at low, medium and high doses, sacrificed on day 30) was “normal lung architecture”.

Consider `CN(Cc1cnc2nc(N)nc(N)c2n1)c1ccc(C(=O)N[C@@H](CCC(=O)O)C(=O)O)cc1` [MTX, Methotrexate], for which the Onset of action in series [1] (patients) is 4-6 weeks. Also, in series [1], the “Patients having some response” value is on record as 70%.

Values taken from US20170056621A1, “LOCAL ADMINISTRATION OF DRUGS FOR THE TREATMENT OF ASTHMA” (Mercator MedSystems, Inc., priority 2015, published 2017).
